Four compounds from patent US20240343699A1, “DERIVATIVES OF SUBSTITUTED MORPHOLINES AND USES THEREOF” (Supernus Pharmaceuticals, Inc., priority 2023, published 2024) can be followed below.

The nature of data set [1]: Stability in rat gut microbiota (fecal matter). It counts as in vitro ADME. The note with it: pH 6 and pH 7.4, 0.5 mM. How it is done: Stability in Rat and Human Gut Microbiota. Rat fecal material was obtained and weighed. One capsule of the raw probiotics was crushed and weighed prior to use. The weighed samples were then solubilized in PBS at pH 6.0 and 7.4 to extract microorganisms. The samples were centrifuged at 18,000×g for 10 min to remove particulates and the supernatant was used to evaluate test article stability. An aliquot (50 μL) of the COMPOUND A stock solution was added to the fecal extract (final concentration 0.5 mM) and allowed to incubate at 37° C. Aliquots were collected at 0, 15, 30, 60, and 120 min and analyzed by LC/MS/MS to determine stability of the parent molecule. The collected sample was quenched in acetonitrile/0.1% formic acid mixture.

For the next data set, the system named is recognition memory. Description: Spontaneous novel object recognition (NOR), 48 hr retention interval. Type of data set: in vivo, male Wistar rats. The note with it: 48 hr delay.
The test system of the next data set is sleep/wake and cataplexy. Type of data set: in vivo, male DTA mice.
A further data set relates to immobility. Description: Tail suspension test (TST).
Data set [2] in a line: Preclinical PK: plasma viloxazine after PO dosing of COMPOUND D or COMPOUND E. Type of data set: in vivo, mouse. Particulars: individual mice. How it is done: A study was conducted for preclinical PK performance of COMPOUND D and COMPOUND E. Please see below for details on the study, with fasted mice orally dosed with COMPOUND D or COMPOUND E.
Relevant data are summarized in below tables (ND=Not determined (Parameters not determined due to inadequately defined terminal elimination phase. BQL=Below the lower limit of quantitation (LLOQ). If the adjusted rsq (linear regression coefficient of the concentration value on the terminal phase) is less than 0.9, T1/2 might not be accurately estimated. If the % AUCExtra>20%, AUC0-inf, Cl, MRT0-inf and Vdss might not be accurately estimated. If the % AUMCExtra>20%, MRT0-inf and Vdss might not be accurately estimated. a: Bioavailability (%) was calculated using AUC0-inf (% AUCExtra<20%) or AUC0-last (% AUCExtra>20%) with nominal dose)

Data set [3] is classed as in vitro ADME. Particulars: Rat plasma, wet ice bath. On the procedure:
A study was conducted to examine the bioanalytical data for compounds in Rat plasma. […] Frozen Sprague Dawley rat (male pooled) and human (mixed gender) plasma was utilized for the study. Test compounds were dissolved in dimethyl sulfoxide (DMSO) to make a 10 mM stock solution. A working solution was made with MeOH/water. […]

The mark [4] stands for this setting: COMPOUND A 30, 90 and 120 mg/kg, first 6 h.
[5] abbreviates: COMPOUND A 90 and 120 mg/kg, ZT19-ZT24.
Where [6] appears, read: COMPOUND A 90 and 120 mg/kg, first 6 h.
The mark [7] stands for this setting: all concentrations of COMPOUND A, first 6 h.
The mark [8] stands for this setting: 5% Paraoxon ethyl as stabilizer, HQC, 0 hr sample.
The mark [9] stands for this setting: 5% Paraoxon ethyl as stabilizer, HQC, 1 hr.
Setting [10] is: 5% Paraoxon ethyl as stabilizer, HQC, 1 hr sample.
Setting [11] is: 5% Paraoxon ethyl as stabilizer, HQC, 2 hr.
[12] abbreviates: 5% Paraoxon ethyl as stabilizer, HQC, 2 hr sample.
Where [13] appears, read: 5% Paraoxon ethyl as stabilizer, LQC, 0 hr sample.
Setting [14] is: 5% Paraoxon ethyl as stabilizer, LQC, 1 hr.
[15] abbreviates: 5% Paraoxon ethyl as stabilizer, LQC, 1 hr sample.
[16] abbreviates: 5% Paraoxon ethyl as stabilizer, LQC, 2 hr.
[17] abbreviates: 5% Paraoxon ethyl as stabilizer, LQC, 2 hr sample.
[18] abbreviates: No stabilizer, HQC, 0 hr sample.
[19] abbreviates: No stabilizer, HQC, 1 hr sample.
[20] abbreviates: No stabilizer, HQC, 2 hr sample.
Where [21] appears, read: No stabilizer, LQC, 0 hr sample.
The mark [22] stands for this setting: No stabilizer, LQC, 1 hr sample.
Setting [23] is: No stabilizer, LQC, 2 hr sample.

Where two headings read alike, the source gives them in different places.

Protocol for immobility: The tail suspension test is an experimental method used in scientific research to measure a state of being helpless in rodents, especially in mice. It is based on the observation that if a mouse is subjected to short term inescapable stress then the mouse will stop struggling. Immobility is quantified by measuring the amount of time lacking whole body activity.
The immobilized time in the last 4 min of the TST, which indicated depression-like behavior, was quantified using offline video manual scoring in a blinded manner.
Animals. Adult (7 to 8 weeks) male mice (C57Bl/6, Charles River Laboratories) were used in the study. Upon arrival, animals were group-housed (5/cage) with access to food and water ad libitum. Animals were maintained on a 12/12-hour light/dark cycle in a temperature—(22±2° C.) and humidity—(approx. 50%) controlled room. Animals were numbered consecutively by tail marks. Each cage was identified by a card indicating the study number, sex, animal numbers and date of birth.
Test article formulations were prepared fresh based on weight-to-volume in the vehicle on each dosing day. […] The appearance of the formulations was clear, with no precipitations. […] A vehicle group was included for comparison.
Monitoring. A piezoelectric sensor operated by the SmartCage system was utilized and video recording was conducted for scoring. After animals acclimated to the testing room, an individual mouse's tail was placed onto the piezoelectric sensor-board and the mouse was hung upside down, which signaled the immediate start of the recording of struggle activity, and it lasted for 6 min. The mouse was then taken off and returned to the home cage. The immobilized time, indicating depression-like behavior, was quantified using manual scoring of the video recordings for the period from 120 seconds to 360 seconds during TST. The percent immobility time was calculated: (immobility time/240 seconds)*100.
The immobilized time in the last 4 min of the TST, which indicates depression-like behavior, was quantified using offline video manual scoring in a blinded manner.
Animals. Adult (8 weeks, approximately 20-25 g) male mice (C57Bl/6, Vendor: Charles River Laboratories) were used in the study. Upon arrival, animals were group-housed (5/cage) with access to food and water ad libitum. Animals were maintained on a 12/12-hour light/dark cycle in a temperature—(22±2° C.) and humidity—(35-50%) controlled room. Animals were numbered consecutively by tail ID. Each cage was identified by a colored card indicating the study number, sex, animal numbers and date of birth.
Test article formulations were prepared fresh based on weight-to-volume in the vehicle on dosing day. […] The appearance of the formulations was clear, with no precipitations.
The tail suspension test is an experimental method used in scientific research to measure a state of being helpless in rodents, especially in mice. It is based on the observation that if a mouse is subjected to short term inescapable stress then the mice will give up struggling. “Immobility” is quantified by measuring the amount of time during which the animal has no whole-body activity.
Tail Suspension Test (TST). A piezoelectric sensor operated by the SmartCage system was utilized and video recording was conducted for scoring. Once animals were acclimated to the testing room, the TST was initiated by placing the tail of the test mouse onto the piezoelectric sensor-board and hanging the mouse upside down. The recording period was initiated once the mouse was upside down and lasted for 6 min. After the recording period, the mouse was removed from the recording device and returned to its home cage.

With `CCOc1ccccc1OC[C@@H]1CN(C(=O)OC(C)OC(=O)[C@@H](N)C(C)C)CCO1` (stereo partly drawn) [COMPOUND A], the “stability in rat fecal matter” value in data set [1] is reported as “time-dependent decrease in the amount of parent compound”. For the same compound, the “preference for the novel object (exploration times)” value with recognition memory (COMPOUND A 15 mg/kg p.o.) is reported as “non-significant trend toward a preference for the novel object”. In addition, the “preference for the novel object (exploration times)” value with recognition memory (COMPOUND A 30, 60, and 90 mg/kg p.o.) is reported as “significant (p<0.05) preference for the novel object”. The “d2 ratios vs vehicle-control” value with recognition memory (COMPOUND A 60 and 90 mg/kg p.o.) is reported as “significant difference (p<0.05) from the vehicle-control response”. Further, the “W and NREM (hourly, cumulative and total time)” value with sleep/wake and cataplexy (COMPOUND A 30 mg/kg, ZT19-ZT24) was “W increased overall (treatment effect) and NREM decreased overall”. Further, the “C levels during ZT24” value in the data set on sleep/wake and cataplexy (COMPOUND A 120 mg/kg) is “approximately half of vehicle levels”. In addition, the “NREM (hourly, cumulative and total time)” value in the data set on sleep/wake and cataplexy (COMPOUND A 120 mg/kg, ZT19-ZT24) is “NREM increased overall”. For the same compound, the “latency to REM” value with sleep/wake and cataplexy (COMPOUND A 10, 30, 90, 120 mg/kg p.o., first 6 h of dark period) is on record as “increased the latency to REM”. In addition, in the data set with sleep/wake and cataplexy (setting [4]), the “number of C bouts” value is on record as “the number of C bouts decreased overall”, the “total NREM time” value is reported as “total NREM time increased” and the “total time in C (cataplexy)” value is on record as “total time in C decreased”. Further, the “REM and C during the 6-h recording” value in the data set with sleep/wake and cataplexy (COMPOUND A 90 and 120 mg/kg) is reported as “practically eliminated”. In addition, in the data set on sleep/wake and cataplexy (setting [5]), the “REM:NR ratios” value was “REM:NR ratios decreased” and the “latency to REM” value is reported as “The latency to REM increased”. Further, in the data set with sleep/wake and cataplexy (setting [6]), the LMA result was “LMA decreased overall” and the “Total W time” value was “Total W time decreased”. The “C (cataplexy)” value in the data set with sleep/wake and cataplexy (COMPOUND A two highest concentrations, ZT19-ZT24) was “significantly decreased”. In the data set with sleep/wake and cataplexy (setting [7]), the “NREM alpha, beta and high gamma EEG power” value is on record as “decreased overall”; the “total time in REM” value is “decreased total time in REM”. For the same compound, in the data set with sleep/wake and cataplexy (all test conditions, first 6 h), the “REM:NR ratios” value is listed as “REM:NR ratios decreased”. In addition, in the data set on immobility (COMPOUND A 32 mg/kg PO), the “decrease of immobility compared to vehicle” value came to 30%. Moreover, the percent immobility time entry in the data set with immobility (COMPOUND A 4, 8, 16, 32 mg/kg PO, ANOVA p=0.006) is “significant reduction in immobility”.

With `CCOc1ccccc1OC[C@@H]1CN(C(=O)OC(OC(=O)[C@H](N)C(C)C)C(C)C)CCO1` (stereo partly drawn) [COMPOUND C], the percent immobility time entry in the data set on immobility (COMPOUND C 30 mg/kg PO, dose-response study, vs vehicle) was “tendency in decreasing immobility”; in the data set on immobility (COMPOUND C 30 mg/kg PO, follow-up study, vs vehicle (p=0.43)) it was “no significant reduction in immobility”; in the data set with immobility (COMPOUND C 10, 30, 60, 90 mg/kg PO 30 min prior, ANOVA across all doses), “no significant reduction in immobility”.

For `CCOc1ccccc1OCC1CN(C(=O)OC(C)OC(=O)[C@H](N)C(C)C)CCO1` (stereo partly drawn) [COMPOUND D], the “Plasma concentration of Viloxazine” value in data set [2] (COMPOUND D PO 19.74 mg/kg, 8.00 h) is “BQL”; in data set [2] (COMPOUND D PO 19.74 mg/kg, 24.0 h), “BQL”. Also, the “Mean peak area ratio” value in data set [3] (setting [8]) was determined as 1.83; in data set [3] (setting [10]), 1.07; in data set [3] (setting [12]), 0.47; in data set [3] (setting [13]) it was 0.00608; in data set [3] (setting [15]) it was 0.00348; in data set [3] (setting [17]), 0.00224. The “Mean peak area ratio” value in data set [3] (setting [18]) was 0.67; in data set [3] (setting [19]), 0.21; in data set [3] (setting [20]), 0.05; in data set [3] (setting [21]), 0.00292; in data set [3] (setting [22]), 0.00088; in data set [3] (setting [23]), 0.0002. Further, the “% stability” value in data set [3] (setting [9]) worked out at 58.7%; in data set [3] (setting [11]) it was 26.0%; in data set [3] (setting [14]) it was 57.3%; in data set [3] (setting [16]), 36.9%; in data set [3] (No stabilizer, HQC, 1 hr), 31.2%; in data set [3] (No stabilizer, HQC, 2 hr) it was 8.0%. The “% stability” value in data set [3] (No stabilizer, LQC, 1 hr) turned out to be 30.1%; in data set [3] (No stabilizer, LQC, 2 hr), 6.8%.

As to `CCOc1ccccc1OCC1CN(C(=O)OC(OC(=O)[C@@H](N)C(C)C)C(C)C)CCO1` (stereo partly drawn) [COMPOUND E], the “Plasma concentration of Viloxazine” value in data set [2] (COMPOUND E PO 20.99 mg/kg, 8.00 h) is reported as “BQL”; in data set [2] (COMPOUND E PO 20.99 mg/kg, 24.0 h), “BQL”. Also, the “Mean peak area ratio” value in data set [3] (setting [8]) amounted to 3.38; in data set [3] (setting [10]), 2.69; in data set [3] (setting [12]), 2.13; in data set [3] (setting [13]) it was 0.00882; in data set [3] (setting [15]) it was 0.00602; in data set [3] (setting [17]), 0.00562. The “Mean peak area ratio” value in data set [3] (setting [18]) amounted to 1.58; in data set [3] (setting [19]), 0.33; in data set [3] (setting [20]), 0.04; in data set [3] (setting [21]), 0.00472; in data set [3] (setting [22]), 0.00133; in data set [3] (setting [23]), 0.00025. Also, the “% stability” value in data set [3] (setting [9]) is 79.5%; in data set [3] (setting [11]), 62.9%; in data set [3] (setting [14]), 68.3%; in data set [3] (setting [16]) it was 63.7%; in data set [3] (No stabilizer, HQC, 1 hr), 20.9%; in data set [3] (No stabilizer, HQC, 2 hr), 2.5%. Besides, the “% stability” value in data set [3] (No stabilizer, LQC, 1 hr) was found to be 28.2%; in data set [3] (No stabilizer, LQC, 2 hr) it was 5.3%.
